Assay results reported in patent US6855549B1, “Methods and compositions for increasing the infectivity of gene transfer vectors” (The University of Iowa Research Foundation, priority 1998, dated 2005).

Columns and labels:
[1] = tested on: differentiated human airway epithelial cells; format: cell-based; conditions: 5 μM AZT at addition of FIV-βgal vector/EGTA to apical surface
[2] = tested on: differentiated human airway epithelia; experiment: Transepithelial resistance of KGF-treated airway epithelia with Ca2+ chelators; format: cell-based
Description: Differentiated epithelial cells were treated with 100 ng/ml KGF for 24 hr. Different concentrations of each calcium chelator in HEPES/HCl (pH 7.4) or in isotonic HEPES/saline (pH 7.4) buffer were mixed with vector buffer and applied to the apical surface for times as specified (Wang et al., 1998). Transepithelial resistance was measured with an Ohmmeter (EVOM; World Precision Instruments, Inc. Sarasota, Fla.) by adding cell culture media to the apical surface and the values were compared to untreated controls.
To understand whether the tonicity of the vector solution affects epithelial permeability and gene transfer efficiency, hypotonic (40 mmol/kg) or isotonic (220 mmol/kg) solutions of 6 mM EGTA, EDTA or BAPTA were added to the MuLV vector buffer and applied to the apical surface of differentiated airway epithelial cells pre-treated with KGF. At specific time intervals, transepithelial resistance (R1) was measured using an Ohmmeter.

[3] = tested on: human nasal epithelium; experiment: Nasal transepithelial voltage (Vt) in human volunteers; format: in vivo; conditions: human, in vivo
Description: Human studies. The Vt across the nasal epithelium was measured in 6 volunteers using previously described methods (Zabner et al., 1996). The protocol followed was identical to that described above for the rabbit studies. […] The catheter was then left in that position for the entire recording period. The solutions were administered through the second lumen in the following order: 1) Normal saline for 5 min; 2) Sterile water with 10 mM EGTA or 10 mM EDTA for 10 min; 3) Nommal saline with 10 mM EGTA or 10 mM EDTA for 5 min; and 4) Normal saline with 10 mM, EGTA or 10 mM EDTA plus […] amiloride for 5 min. Measurements of Vt were read by two investigators who were blinded and wvere checked by a third investigator if there was a discrepancy of more than 2 mV. Disruption of epithelial junctions was assessed by detecting a fall in nasal Vt after perfusion with the chelator, and by the loss of amiloride-sensitive Vt after perfusion with the. chelator solution.

[4] = tested on: rabbit tracheal epithelium; experiment: Tracheal transepithelial voltage (Vt) in anesthetized rabbits; format: in vivo; conditions: rabbit, in vivo
Description: Rabbit studies. The transepithelial electrical potential difference across the rabbit tracheal epithelium (Vt) was measured using a modification of previously described methods (Zabner et al., 1996). The reference electrode was a subcutaneous needle connected with sterile normal saline solution to a silver/silver chloride pellet. Adult New Zealand white rabbits (n=4/group) were anesthetized with 32 mg/kg ketamine, 5.1 mg/kg xylazine and 0.8 mg/kg acepromazine intramuscularly and placed with the head in the dependent position. An exploring electrode (pediatric size 8 Teflon-coated latex double lumen Foley catheter, modified Ruseh, Inc., Duluth, Ga.) was inserted into the tracheal lumen via a tracheotomy incision. One lumen of the catheter was filled with sterile normal saline solution and was connected to a silver/silver chloride pellet. Voltage was measured with a voltmeter connected to a strip chart recorder. The catheter was then left in that position for the entire recording period. The solutions were administered through the second lumen in the following order: 1) Normal saline for 5 min; 2) Sterile water with 10 mM EGTA for 10 min; 3) Normal saline with 10 mM EGTA for 5 min; and 4) Normal saline with 10 mM EGTA plus 100 μM amiloride for 5 min. Measurements of Vt were read by two investigators who were blinded to the treatment received. There wre no discrepancies in readings of greater than 2 mV between the investigators. Disruption of epithelial junctions was assessed by detecting a fall in […] Vt after perfusion with the chelator, and by the loss of amiloride-sensitive Vt after perfusion with the chelator solution.

[5] = tested on: differentiated human airway epithelia; format: cell-based
[6] = tested on: human airway epithelia; experiment: BrdU labeling of differentiated human airway epithelia; format: cell-based; conditions: for BrdU incorporation versus control epithelia: EGF 200 ng/ml, heregulin 5 nM
Description: BrdU immunohistochemistry. BrdU labeling and immunostaining was performed using a kit from Zymed Laboratories Inc. (South San Francisco, Calif.). In studies that investigate the effects of growth factors, the cells may be treated with 50-100 ng/ml growth factor for 36 h. A 1:100 dilution of the BrdU labeling reagent was added to the culture media and cells labeled for 4 hours followed by fixation in 10% neutralized Formalin. BrdU histochemistry was performed following the methods of the Zymed BrdU kit. Labeled nuclei stained brown under these conditions. Epithelial cell preparations were examined microscopically en face or in cross sections of paraffin embedded membranes and the percentage of brown staining nuclei determined. Hematoxylin or 4′,6-diamidino-2-phenylindole, dibydrochloride (DAPI) (Molecular Probes, Eugene, Oreg.) were used for counterstains.
To determine whether growth factors are mitogenic to human airway epithelia, primary cultures of cells grown at the air-liquid interface were utilized. These cultures have ion transport properties and morphology similar to the intact surface epithelium (Smith et al., 1996; Kondo et al., 1991) and after 14 days in culture the cells are well-differentiated, ciliated, and have ion transport properties similar to the intact airways (Zabner et al., 1996; Yamaya et al., 1992). […] After 24 hours of growth factor treatment, growth factor administration doubles the monolayer cell number compared to control. HGF treatment (200 ng/ml) increased cell labeling to 17-36%, while 5-10% of untreated controls were BrdU positive (n=3).

[7] = tested on: human airway epithelia; experiment: [3H] thymidine incorporation in primary cultures of human airway epithelia; format: cell-based; conditions: 200 ng/ml HGF

## Cc1cn([C@H]2C[C@H](N=[N+]=[N-])[C@@H](CO)O2)c(=O)[nH]c1=O [AZT, 3′-azido-3′ deoxythymidine]
[1]
  expression of vector encoded product (pseudotransduction control): showed no significant expression of vector encoded product

## O=C(O)CN(CC(=O)O)c1ccccc1OCCOc1ccccc1N(CC(=O)O)CC(=O)O [BAPTA]
[2]; 6 mM, isotonic
  fall of R1, isotonic solution: quickly dropped R1, similar to the hypotonic solutions

## O=C(O)CN(CCN(CC(=O)O)CC(=O)O)CC(=O)O [EDTA]
[2]; 6 mM chelator, isotonic (220 mmol/kg)
  time required to decrease R1 to ~20% of the controls: Sixty

## N=C(N)NC(=O)c1nc(Cl)c(N)nc1N [amiloride]
[3]
  nasal Vt response to amiloride in control studies: there was a significant fall in Vt with amiloride treatment
[4]
  Vt response to amiloride in control tracheas perfused with saline: the anticipated fall in Vt in response to perfusion with amiloride

## O [water]
[5]; application of H2O or EGTA to epithelia, control studies
  effect on proliferation: had no effect on proliferation
[5]; pretreated with water alone, vector to mucosal surface, mean±SE, n=13
  epithelia expressing β-gal: 3±0.5%

## EGF: epidermal growth factor
[6]
  BrdU incorporation versus control epithelia: increased BrdU incorporation over control epithelia

## HGF: Hepatocyte growth factor, mitogen for pulmonary epithelia
[7]
  stimulation of cell division measured by [3H] thymidine incorporation: 3 fold
[6]; HGF 200 ng/ml, untreated controls 5-10% BrdU positive, n=3
  BrdU cell labeling: 17-36%

## heregulin
[6]
  BrdU incorporation versus control epithelia: increased BrdU incorporation over control epithelia
